# Measured values: US5580982A, “Substituted 3-(aminoalkylamino)-1,2-benzisoxazoles and related compounds” (priority 1995, dated 1996)
# Counter-ions that a name gives are not always drawn. Like-named read-outs stand apart in the source and are kept apart here.
# How the values were obtained:
# Brain AChE = target: T1, Brain AChE (Rattus norvegicus, UniProt P37136); assay: In vitro inhibition of acetylcholinesterase activity in rat striatum; assay type: biochemical
# T1 construct: corpora striata dissected free, weighed and homogenized in 19 volumes; from tissue; host or cells: corpora striata of male Wistar rats, whole homogenate
# Experimental: In Vitro Inhibition of Acetylcholinesterase Activity in Rat Striatum
# The method described below was used in this invention for assaying cholinesterase activity. This is a modification of the method of Ellman et al., Biochem. Pharmacol. 7, 88 (1961).
# 4. A 2 mM stock solution of the test drug is made up in a suitable solvent and brought to volume with 0.5 mM DTNB (reagent 3).
# Drugs are serially diluted (1:10) such that the final concentration (in cuvette) is 10^-4 M and screened for activity. If active, IC50 values are determined from the inhibitory activity of subsequent concentrations.
# Male Wistar rats are decapitated, brains rapidly removed, corpora striata dissected free, weighed and homogenized in 19 volumes (approximately 7 mg protein/ml) of 0.05M phosphate buffer, pH 7.2 using a Potter-Elvehjem homogenizer. A 25 microliter aliquot of the homogenate is added to 1.0 milliter vehicle or various concentrations of the test drug and preincubated for 10 minutes at 37° C.
# Enzyme activity is measured with the Beckman DU-50 spectrophotometer. This method can be used for IC50 determinations and for measuring kinetic constants.
# Reagents are added to the blank and sample cuvettes as follows:
# Blank values are determined for each run to control for non-enzymatic hydrolysis of substrate and these values are automatically subtracted by the kindata program available on kinetics soft-pac module. This program also calculates the rate of absorbance change for each cuvette.
# Substrate concentration is 10 mM diluted 1:2 in assay yielding final concentration of 5 mM. DTNB concentration is 0.5 mM yielding 0.25 mM final concentration. [formula] IC50 values are calculated from log-probit analysis.
# MAO-B = target: T2, MAO-B (Rattus norvegicus, UniProt P19643); assay: Ex vivo monoamine oxidase inhibition assay, Type B; assay type: in vivo; conditions: po
# T2 construct: the whole brain without cerebellum was dissected rapidly and frozen on dry ice; from tissue; host or cells: whole brain without cerebellum of orally dosed male Wistar rats, homogenate
# T2 sequence (P19643 1-520): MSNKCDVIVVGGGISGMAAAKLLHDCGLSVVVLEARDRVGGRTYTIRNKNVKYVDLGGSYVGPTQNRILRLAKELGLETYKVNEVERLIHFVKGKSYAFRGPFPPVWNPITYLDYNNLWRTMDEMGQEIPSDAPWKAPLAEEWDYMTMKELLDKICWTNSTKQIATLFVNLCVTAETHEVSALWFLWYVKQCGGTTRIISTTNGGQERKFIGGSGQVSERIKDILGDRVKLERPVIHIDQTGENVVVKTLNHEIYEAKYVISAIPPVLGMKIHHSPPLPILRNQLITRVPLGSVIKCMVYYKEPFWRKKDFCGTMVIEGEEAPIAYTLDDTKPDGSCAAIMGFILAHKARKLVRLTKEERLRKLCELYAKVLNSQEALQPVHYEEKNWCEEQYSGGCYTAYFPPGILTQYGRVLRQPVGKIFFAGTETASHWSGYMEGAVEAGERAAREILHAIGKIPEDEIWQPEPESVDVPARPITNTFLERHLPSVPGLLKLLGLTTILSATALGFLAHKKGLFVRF
# Experimental: (§1) The enzyme monoamine oxidase (MAO) exists in two catalytically distinguishable forms termed MAO-A and MAO-B. The ability of the compounds of the invention to inhibit MAO ex vivo in the rat was determined using a procedure adapted from the procedure set forth in The Journal of Pharmacology and Experimental Therapeutics, Vol. 248, No. 1, (1989), pp. 400-414.
# (§2) The compound to be tested was administered to male Wistar rats orally. At specified times after administration the rats were decapitated and the whole brain without cerebellum was dissected rapidly and frozen on dry ice. The samples were stored at -80° C. until measurement of the MAO activity. After thawing, the tissues were homogenized in 5 volumes of 0.1 mol/l of potassium-phosphate buffer, pH 7.4, using all glass homogenisers. MAO activity was determined essentially as described by Wurtman and Axelrod. Biochem. Pharmacol. 12: 1439-1441, (1963).
# (§3) The enzyme reaction was started by addition of 80 μl of the MAO-A substrate [^3 H]-5-HT (0.96 mCi/mmol, final amine concentration is 200 μM or of the MAO-B substrate [^14 C]PEA (0.192 mCi/mmol, final amine concentration is 200 μM and the incubation continued for 10 minutes at 37° C. Then, the reaction was stopped by addition of 200 μl of 2N HCl, and the deaminated metabolites were extracted by vigorous shaking for 10 minutes with 5 ml of diethylether (5-HT-extraction) or n-heptane (PEA-extraction). After centrifugation (1000×g; 30 sec) the water-phase was frozen in dry ice and the organic layer poured into plastic vials containing 5 ml of scintillation cocktail. Finally, the radioactivity was determined in a scintillation spectrometer. Reaction mixtures as described above but lacking the homogenate served as blanks.
# MAO-A [1] = target: T3, MAO-A (Rattus norvegicus, UniProt P21396); assay: Ex vivo monoamine oxidase inhibition assay, Type A; assay type: in vivo; conditions: po
# T3 construct: the whole brain without cerebellum was dissected rapidly and frozen on dry ice; from tissue; host or cells: whole brain without cerebellum of orally dosed male Wistar rats, homogenate
# T3 sequence (P21396 1-526): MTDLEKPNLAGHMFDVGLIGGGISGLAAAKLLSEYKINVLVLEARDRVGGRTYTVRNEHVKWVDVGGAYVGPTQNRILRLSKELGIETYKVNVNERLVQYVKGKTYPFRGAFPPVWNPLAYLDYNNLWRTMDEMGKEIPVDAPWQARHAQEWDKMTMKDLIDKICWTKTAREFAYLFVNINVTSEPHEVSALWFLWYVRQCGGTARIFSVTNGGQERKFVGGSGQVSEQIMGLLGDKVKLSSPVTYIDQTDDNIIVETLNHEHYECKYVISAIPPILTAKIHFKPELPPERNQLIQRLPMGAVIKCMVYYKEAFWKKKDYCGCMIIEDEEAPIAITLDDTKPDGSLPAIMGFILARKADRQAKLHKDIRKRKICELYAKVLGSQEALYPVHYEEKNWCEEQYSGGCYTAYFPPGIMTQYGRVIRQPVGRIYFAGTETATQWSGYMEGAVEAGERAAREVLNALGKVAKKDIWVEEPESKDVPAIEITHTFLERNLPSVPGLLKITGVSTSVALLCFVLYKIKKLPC
# Experimental: as §1, §2, §3
# MAO-A [2] = target: T3, MAO-A; assay: Inhibition of Type A monoamine oxidase activity in rat brain synaptosomes; assay type: biochemical; conditions: substrate [^3 H]-5HT 200 μM; read-out: Inhibitory Concentration - IC50 MAO-A
# Experimental: Inhibition of Type A and Type B Monoamine Oxidase Activity in Rat Brain Synaptosomes
# To determine the selective inhibition of the two forms of monoamine oxidase (MAO).
# Although various methods for measuring MAO activity are available, the described method involves the extraction of the radiolabeled deaminated metabolites of [^3 H]-5HT or [^14 C]-β-phenethylamine. This procedure allows MAO-A and MAO-B activities to be measured either simultaneously or individually (3).
# c. Add 12 μl of [^3 H]-5HT to 2 ml of the 5 mM 5HT solution. (Final amine concentration in the assay is 200 μM: see below.)
# 5. Equal amounts of MAO-A (5HT) and MAO-B (PEA) substrates are combined for simultaneously testing both MAO types, i.e. mixed stock solution of 2.5 mM 5HT and 2.5 mM PEA, 40 μl of this mixed solution gives a 200 μM final concentration of each amine in the assay. When testing only one MAO type, the individual 5 mM stock solutions must be diluted 1:1 with distilled water prior to adding 40 μl to the incubation mixture; i.e., same 200 μM final amine concentration.
# Male Wistar rats weighing 150-250 grams were sacrificed and the brains rapidly removed. Whole brain minus cerebellum was homogenized in 30 volumes of ice-cold, phosphate-buffered 0.25M sucrose, using a Potter-Elvejhem homogenizer. The homogenate was centrifuged at 1000 g for 10 minutes and the supernatant (S1) decanted and recentrifuged at 18,000 g for 20 minutes. The resulting pellet (P2) was resuspended in fresh 0.25M sucrose and served as the tissue source for mitochondrial MAO.
# Tubes are preincubated for 15 minutes at 37° C. and the assay is started by adding 40 μl of combined substrate ([^3 H]-5HT and [^14 C]-PEA) at 15 second intervals. The tubes are incubated for 30 minutes at 37° C. and the reaction stopped by the addition of 0.3 ml 2N HCl. Tissue blank values are determined by adding the acid before the radioactive substrate. The oxidative products of the reaction are extracted with ethyl acetate/toluene (1:1). 5 ml of this mixture is added to the tubes. The resultant mixture is vortexed for 15 seconds to extract the deaminated metabolites into the organic phase and the latter is allowed to separate from the aqueous phase. The tubes are placed in acetone/dry ice bath to freeze the aqueous layer. When this layer is frozen, the top organic layer is poured into a scintillation vial. 10 ml of Liquiscint is added and the samples are counted using window settings for ^14 C in one channel and ^3 H in the second channel. IC50 values are determined by log-probit analysis.
# monoamine oxidase = conditions: literature reference (2); cited from earlier work
# [3] = rat striatum homogenate, pH 7.2, read-out: Inhibitory Concentration IC50 Brain AChE
# [4] = 50 mg/kg, p.o., 0.5 h, read-out: Ex vivo inhibition (%) of monoamine oxidase Type B
# [5] = 50 mg/kg, p.o., 1.0 h, read-out: Ex vivo inhibition (%) of monoamine oxidase Type B
# [6] = 50 mg/kg, p.o., 4.0 h, read-out: Ex vivo inhibition (%) of monoamine oxidase Type B
# [7] = 50 mg/kg, p.o., 24.0 h, read-out: Ex vivo inhibition (%) of monoamine oxidase Type B
# [8] = 50 mg/kg, p.o., 0.5 h, read-out: Ex vivo inhibition (%) of monoamine oxidase Type A
# [9] = 50 mg/kg, p.o., 1.0 h, read-out: Ex vivo inhibition (%) of monoamine oxidase Type A
# [10] = 50 mg/kg, p.o., 4.0 h, read-out: Ex vivo inhibition (%) of monoamine oxidase Type A
# [11] = 50 mg/kg, p.o., 24.0 h, read-out: Ex vivo inhibition (%) of monoamine oxidase Type A
# T1 sequence (P37136 32-614): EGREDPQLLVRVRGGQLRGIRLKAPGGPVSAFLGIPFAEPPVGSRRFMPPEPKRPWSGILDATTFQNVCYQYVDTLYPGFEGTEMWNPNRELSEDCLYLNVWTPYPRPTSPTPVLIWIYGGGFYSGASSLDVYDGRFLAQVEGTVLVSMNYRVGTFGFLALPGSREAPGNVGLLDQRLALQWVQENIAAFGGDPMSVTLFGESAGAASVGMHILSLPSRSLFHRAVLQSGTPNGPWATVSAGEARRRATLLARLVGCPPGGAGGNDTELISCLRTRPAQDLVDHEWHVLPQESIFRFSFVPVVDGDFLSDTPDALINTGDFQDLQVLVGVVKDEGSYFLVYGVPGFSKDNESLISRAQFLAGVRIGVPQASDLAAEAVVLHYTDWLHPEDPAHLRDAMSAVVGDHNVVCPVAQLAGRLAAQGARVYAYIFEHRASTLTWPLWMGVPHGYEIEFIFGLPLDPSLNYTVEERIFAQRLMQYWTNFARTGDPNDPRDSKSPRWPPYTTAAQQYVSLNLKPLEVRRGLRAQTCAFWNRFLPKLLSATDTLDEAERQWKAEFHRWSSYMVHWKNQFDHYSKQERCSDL
smiles,measurement,setting,value
"COc1ccc2c(N3CCN(c4ccncc4)CC3)noc2c1Br [7-Bromo-6-methoxy-3-[1-(4-pyridyl)piperazinyl]-1,2-benzisoxazole]",IC50,Brain AChE; [3],14 µM
"CN(CCN1CCOCC1)c1noc2ccccc12 [N-methyI-N-[2-(4-morpholinyl)ethyl]-1,2-benzisoxazol-3-amine]",inhibition at 50 mg/kg,MAO-B; [4],32%
same,inhibition at 50 mg/kg,MAO-B; [5],25%
same,inhibition at 50 mg/kg,MAO-B; [6],36%
same,inhibition at 50 mg/kg,MAO-B; [7],0%
same,inhibition at 50 mg/kg,MAO-A [1]; [8],78%
same,inhibition at 50 mg/kg,MAO-A [1]; [9],66%
same,inhibition at 50 mg/kg,MAO-A [1]; [10],76%
same,inhibition at 50 mg/kg,MAO-A [1]; [11],11%
"CNC(=O)Oc1ccc2c(N(C)CCN3CCOCC3)noc2c1 [3-[[2-(4-Morpholinyl)ethyl]methylamino]1,2-benzisoxazol-6-yl methylcarbamate]",inhibition at 50 mg/kg,"MAO-B; read-out: Ex vivo inhibition (%) of monoamine oxidase Type B, 50 mg/kg, p.o., 0.5 h",19%
same,inhibition at 50 mg/kg,"MAO-B; read-out: Ex vivo inhibition (%) of monoamine oxidase Type B, 50 mg/kg, p.o., 1.0 h",19%
same,inhibition at 50 mg/kg,"MAO-B; read-out: Ex vivo inhibition (%) of monoamine oxidase Type B, 50 mg/kg, p.o., 4.0 h",28%
same,inhibition at 50 mg/kg,"MAO-B; read-out: Ex vivo inhibition (%) of monoamine oxidase Type B, 50 mg/kg, p.o., 24.0 h",12%
same,inhibition at 50 mg/kg,"MAO-A [1]; read-out: Ex vivo inhibition (%) of monoamine oxidase Type A, 50 mg/kg, p.o., 0.5 h",26%
same,inhibition at 50 mg/kg,"MAO-A [1]; read-out: Ex vivo inhibition (%) of monoamine oxidase Type A, 50 mg/kg, p.o., 1.0 h",29%
same,inhibition at 50 mg/kg,"MAO-A [1]; read-out: Ex vivo inhibition (%) of monoamine oxidase Type A, 50 mg/kg, p.o., 4.0 h",42%
same,inhibition at 50 mg/kg,"MAO-A [1]; read-out: Ex vivo inhibition (%) of monoamine oxidase Type A, 50 mg/kg, p.o., 24.0 h",14%
same,IC50,Brain AChE,13 µM
"CN(C)C(=O)Oc1ccc2c(N(C)CCN3CCOCC3)noc2c1Br [7-Bromo-3-[N-methyl, N,2-(4-morpholinyl)ethyl]amino-1,2-benzisoxazol-6-yl dimethylcarbamate]",IC50,Brain AChE,2 µM
"CN(C)C(=O)Oc1ccc2c(N3CCN(c4ccncc4)CC3)noc2c1 [3-[1-(4-Pyridyl)piperazinyl]-1,2-benzisoxazol-6-yl dimethylcarbamate]",IC50,Brain AChE,0.88 µM
"COc1cc(Br)c2oc(C3CCNCC3)cc2c1 [Brofaromine, reference compound]",IC50,MAO-A [2],0.18 µM
C#CCN(C)Cc1ccccc1 [pargyline],selectivity of monoamine oxidase inhibition (type A / type B),monoamine oxidase,selective inhibitors of the type B enzyme
C#CCN(C)CCCOc1ccc(Cl)cc1Cl [Clorgyline],selectivity of monoamine oxidase inhibition (type A / type B),monoamine oxidase,selective inhibitor of the type A enzyme
"c1ccc2c(NCCN3CCOCC3)noc2c1 [N-[2-(4-Morpholinyl)ethyl]-1,2-benzisoxazol-3-amine]",inhibition at 50 mg/kg,MAO-B; [4],52%
same,inhibition at 50 mg/kg,MAO-B; [5],45%
same,inhibition at 50 mg/kg,MAO-B; [6],33%
same,inhibition at 50 mg/kg,MAO-B; [7],0%
same,inhibition at 50 mg/kg,MAO-A [1]; [8],88%
same,inhibition at 50 mg/kg,MAO-A [1]; [9],85%
same,inhibition at 50 mg/kg,MAO-A [1]; [10],68%
same,inhibition at 50 mg/kg,MAO-A [1]; [11],3.5%
"COc1ccc2c(N(C)CCC3CCN(Cc4ccccc4)CC3)noc2c1 [6-Methoxy-N-methyl-N-[2-[4-(1-phenylmethyl)piperdinyl]ethyl]-1,2-benzisoxazol-3-amine sesquihydrochloride]",IC50,Brain AChE; [3],4 µM
N[C@@H]1C[C@H]1c1ccccc1 (relative stereo) [tranylcypromine],selectivity of monoamine oxidase inhibition (type A / type B),monoamine oxidase,nonselective inhibitors
"CNCCNc1noc2cc(OC)ccc12 [6-Methoxy-N-[2-(methylamino)ethyl)-1,2-benzisoxazol-3-amine]",IC50,MAO-A [2],25 µM
C#CCN(C)C(C)Cc1ccccc1 (stereo not drawn) [deprenyl],selectivity of monoamine oxidase inhibition (type A / type B),monoamine oxidase,selective inhibitors of the type B enzyme
CC(C)NNC(=O)c1ccncc1 [iproniazid],selectivity of monoamine oxidase inhibition (type A / type B),monoamine oxidase,nonselective inhibitors
